We go through 14 compounds from patent US12319703B2, “Macrocyclic fused pyrazoles as Mcl-1 inhibitors” (ASCENTAGE PHARMA (SUZHOU) CO., LTD., priority 2019, dated 2025).

The subject of test [1] is NCI-H929 cells. Description: Cell viability assay (NCI-H929 cells), CCK-8. The class given is cell-based. The following applies: WST, 5% FBS. The protocol: Cell Viability Assay (NCI-H929 Cells)
NCI-H929 cells were obtained from American Type Culture Collection (ATCC). Cells were maintained in the recommended culture medium (RPMI 1640) with 10% FBS and 0.05 mM BME at 37° C. and an atmosphere of 5% CO2.
The effect of Compounds on cell viability was determined using Cell Counting Kit-8 (CCK-8) assay according to the manufacturer's instructions. 95 μL of NCI-H929 cell suspension (20000 cells/well) in culture medium were seeded into 96-well plates and cultured 4 hrs. Each tested compound was serially diluted in DMSO, then 5 μL of the compound or DMSO was diluted in 95 μL medium once more. At last, 5 μL of the compound dilution was added to the corresponding well of the cell plate. After the addition of the tested compound, the cells were incubated at 37° C. in an atmosphere of 5% CO2 for 24 hrs. At the end, 10 μL of CCK-8 solution was added to each well of the plate and incubated for 1-4 hours. The plates were read at 450 nm on the microplate reader (BioTek Synergy 1MF). The readings were normalized to the vehicle cells, and the IC50 was calculated by nonlinear regression analysis using GraphPad Prism 6 software.

For test [2], the system named is OPM-2 cells. Description: Cell viability assay (OPM-2 cells), CCK-8. The format is cell-based. The following applies: WST, 5% FBS, read-out: OPM2 (WST, 5% FBS). How it is done:
Cell Viability Assay (OPM-2 Cells)
OPM-2 cells were obtained from Deutsche Sammlung von Mikroorganismen und Zellkulturen GmbH (DSMZ). […]
The effect of representative Compounds of the Disclosure on cell viability was determined using Cell Counting Kit-8 (CCK-8) assay (Shanghai Life iLab Bio Technology) according to the manufacturer's instructions. Each tested compound was serially diluted in culture medium, 100 μL of the compound dilution was added into 96-well plates. 100 μL of an OPM-2 cell suspension (20000 cells/well) in culture medium were seeded into the corresponding well of the plate and the cells were incubated at 37° C. in an atmosphere of 5% CO2 for 24 hours. In the next day, 20 μL of CCK-8 solution was added to each well of the plate and incubated for 4 hours.
The plates were read at 450 nm on the microplate spectrophotometer (SpectraMax plus 384, Molecular devices). The readings were normalized to the vehicle cells, and the IC50 was calculated by nonlinear regression analysis using GraphPad Prism 6 software.

For test [3], the target named is T1, Mcl-1 protein (residues 171-323) (Homo sapiens, UniProt Q07820).
T1 construct: Tag-free Mcl-1 protein (residues 171-323) was used in the FP assay
Put plainly: Inhibition of Mcl-1 by fluorescence polarization (FP) competitive binding assay. To be noted: FAM-Bid tracer 2 nM, Mcl-1 20 nM, 30 min. The protocol: Inhibition of Mcl-1 by Fluorescence Polarization (FP) Assay.
The method used a fluorescein labelled peptide (FAM-Bid) which binds to the Mcl-1 protein leading to an increased anisotropy measured in milli-polarization (mP) values using a plate reader.
A 10-points serial dilution of each compound was prepared in DMSO and 5 μL solution was transferred into flat bottomed, 96-well back plate (final DMSO concentration 5%). 120 μL of Buffer (PBS, 0.01% BGG (Sigma Cat. #SRE0011), 0.01% Triton X-100), containing the Fluorescein labelled peptide (Final concentration 2 nM) and Mcl-1 protein (final concentration 20 nM) was then added. […] 10-points dose response curves were plotted with GraphPad software using Sigmoidal Dose-Response Model and the IC50 values were determined by nonlinear regression fitting of the competition curves.
(In general: Polarisation of emitted light reports the rotation of a fluorescent probe.)

Each structure is given as a SMILES string. Where two headings read alike, the source gives them in different places.

T1 sequence (Q07820 171-323): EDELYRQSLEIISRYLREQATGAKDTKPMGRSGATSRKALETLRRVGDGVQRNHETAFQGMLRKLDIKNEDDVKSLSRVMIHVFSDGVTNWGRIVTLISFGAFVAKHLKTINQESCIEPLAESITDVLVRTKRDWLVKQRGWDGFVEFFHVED

On to `Cn1nc2cc1CSc1cc(c3ccccc3c1)OCCCc1c(C(=O)O)n(C)c3c(c(Cl)ccc13)-c1c(nn3c1CCC3)CSC2` (atropisomer, axis not shown) [Cpd. No. 52, (R)-(Z)-1^6-chloro-1^1,6^1-dimethyl-2^5,2^6-dihydro-1^1H,2^4H,6^1H-10-oxa-4,8-dithia-1(7,3)-indola-2(3,2)-pyrrolo[1,2-b]pyrazola-6(3,5)-pyrazola-9(3,1)-naphthalenacyclotridecaphane-1^2-carboxylic acid], for which the results for the IC50 in test [1] (24 h) and in test [2] (24 h) were 63 nM and 353 nM, respectively.
For `Cn1nc2cc1CSc1cc(c3ccccc3c1)OCCCc1c(C(=O)O)n(C)c3c(c(Cl)ccc13)-c1c(nn3c1CCC3)CSC2` (atropisomer, axis not shown) [Cpd. No. 53, (S)-(Z)-1^6-chloro-1^1,6^1-dimethyl-2^5,2^6-dihydro-1^1H,2^4H,6^1H-10-oxa-4,8-dithia-1(7,3)-indola-2(3,2)-pyrrolo[1,2-b]pyrazola-6(3,5)-pyrazola-9(3,1)-naphthalenacyclotridecaphane-1^2-carboxylic acid] the same measures were 4400 nM and 5720 nM.
Consider `Cn1nc2cc1CSc1cc(cc(C(F)(F)F)c1)OCCCc1c(C(=O)O)n(C)c3c(c(Cl)ccc13)-c1c(nn3c1COCC3)CSC2` [Cpd. No. 33, (Z)-1^6-chloro-1^1,6^1-dimethyl-9^5-(trifluoromethyl)-2^6,2^7-dihydro-11H,2^4H,6^1H-10-oxa-4,8-dithia-2(3,2)-pyrazolo[5,1-c][1,4]oxazina-1(7,3)-indola-6(3,5)-pyrazola-9(1,3)-benzenacyclotridecaphane-1^2-carboxylic acid], for which the IC50 in test [3] is 12 nM; in test [1] (Homo sapiens, NCI-H929, 24 h), 361 nM; in test [2] (Homo sapiens, OPM-2, 24 h) it was 965 nM.
Taken in the same sequence, the figures for `Cc1c(Cl)cc2cc1SCc1cc(nn1C)CSCc1nn3c(c1-c1c(Cl)ccc4c(c(C(=O)O)n(C)c14)CCCO2)CCCC3` [Cpd. No. 37, (Z)-1^6,9^5-dichloro-1^1,6^1,9^6-trimethyl-2^4,2^5,2^6 2^7-tetrahydro-1^1H,6^1-10-oxa-4,8-dithia-2(3,2)-pyrazolo[1,5-a]pyridina-1(7,3)-indola-6(3,5)-pyrazola-9(1,3)-benzenacyclotridecaphane-1^2-carboxylic acid] were 38 nM, 535 nM and 1050 nM.
Regarding `Cn1nc2cc1CSc1cc(c3ccccc3c1)OCCCc1c(C(=O)O)n(C)c3c(c(Cl)ccc13)-c1c(nn3c1CCC3)CSC2` [compound 1, (Z)-1^6-chloro-1^1,6^1-dimethyl-2^5,2^6-dihydro-1^1H,2^4H,6^1H-10-oxa-4,8-dithia-1(7,3)-indola-2(3,2)-pyrrolo[1,2-b]pyrazola-6(3,5)-pyrazola-9(3,1)-naphthalenacyclotridecaphane-1^2-carboxylic acid], the IC50 in test [3] worked out at 15 nM; in test [1] (24 h) it was 123 nM; in test [2] (24 h), 437 nM.
Turning to `Cn1c(C(=O)O)c2c3ccc(Cl)c(c31)-c1c(nn3c1CCC3)CSCc1coc(n1)CSc1cc(c3ccccc3c1)OCCC2` [compound 2, (Z)-1^6-chloro-1^1-methyl-2^5,2^6-dihydro-1^1H,2^4H-10-oxa-4,8-dithia-6(4,2)-oxazola-1(7,3)-indola-2(3,2)-pyrrolo[1,2-b]pyrazola-9(3,1)-naphthalenacyclotridecaphane-1^2-carboxylic acid], the IC50 stood at 14 nM in test [3]; 287 nM in test [1] (Homo sapiens, NCI-H929, 24 h); 1140 nM in test [2] (Homo sapiens, OPM-2, 24 h).
For `Cn1c(C(=O)O)c2c3ccc(Cl)c(c31)-c1c(nn3c1CCC3)CSCc1csc(n1)CSc1cc(c3ccccc3c1)OCCC2` [compound 3, (Z)-1^6-chloro-1^1-methyl-2^5,2^6-dihydro-1^1H,2^4H-10-oxa-4,8-dithia-6(4,2)-thiazola-1(7,3)-indola-2(3,2)-pyrrolo[l,2-b]pyrazola-9(3,1)-naphthalenacyclotridecaphane-1^2-carboxylic acid] the same measures were 8.7 nM, 5110 nM and 6580 nM.
Regarding `Cn1c(C(=O)O)c2c3ccc(Cl)c(c31)-c1c(nn3c1CCC3)CSCC1=NC=C(CSc3cc(c4ccccc4c3)OCCC2)S1` [compound 4, 1^6-chloro-1^1methyl-2^5,2^6-dihydro-1^1H,2^4H-10-oxa-4,8-dithia-6(2,5)-thiazola-1(7,3)-indola-2(3,2)-pyrrolo[1,2-b]pyrazola-9(3,1)-naphthalenacyclotridecaphane-1^2-carboxylic acid], the IC50 in test [3] came out at 19.1 nM; in test [2] (Homo sapiens, OPM-2, 24 h), 5300 nM.
For `Cn1nc2cc1CSc1cc(c3ccccc3c1)OCCCc1c(C(=O)O)n(C)c3c(c(Cl)ccc13)-c1c(nn3c1OCC3)CSC2` [compound 6, (Z)-1^6-chloro-1^1,6^1-dimethyl-2^2,2^3-dihydro-1^1H,6^1H-10-oxa-4,8-dithia-2(7,6)-pyrazolo[5,1-b]oxazola-1(7,3)-indola-6(3,5)-pyrazola-9(3,1)-naphthalenacyclotridecaphane-1^2-carboxylic acid], the IC50 in test [3] amounted to 15 nM; in test [1] (Homo sapiens, NCI-H929, 24 h), 234 nM; in test [2] (Homo sapiens, OPM-2, 24 h), 1350 nM.
Take `Cn1c(C(=O)O)c2c3ccc(Cl)c(c31)-c1c(nn3c1CCC3)CSCc1cc(on1)CSc1cc(c3ccccc3c1)OCCC2` [compound 8, (Z)-1^6-chloro-1^1-methyl-2^5,2^6-dihydro-1^1H,2^4H-10-oxa-4,8-dithia-6(3,5)-isoxazola-1(7,3)-indola-2(3,2)-pyrrolo[1,2-b]pyrazola-9(3,1)-naphthalenacyclotridecaphane-1^2-carboxylic acid]: the IC50 in test [3] is 10.2 nM; in test [1] (Homo sapiens, NCI-H929, 24 h) it was 2940 nM; in test [2] (Homo sapiens, OPM-2, 24 h), > 10000 nM.
Taken in the same sequence, the figures for `Cn1nc2cc1CSc1cc(c3ccccc3c1)OCCCc1c(C(=O)O)n(C)c3c(c(Cl)ccc13)-c1c(nn3c1CCC3)CS(=O)(=O)C2` [compound 9, (Z)-1^6-chloro-1^1,6^1-dimethyl-2^5,2^6-dihydro-1‘H,2^4H,6^1H-10-oxa-4,8-dithia-1(7,3)-indola-2(3,2)-pyrrolo[1,2-b]pyrazola-6(3,5)-pyrazola-9(3,1)-naphthalenacyclotridecaphane-1^2-carboxylic acid 4,4-dioxide] were 13 nM, 411 nM and 1170 nM.
As for `Cc1nc2oc1CSc1cc(c3ccccc3c1)OCCCc1c(C(=O)O)n(C)c3c(c(Cl)ccc13)-c1c(nn3c1CCC3)CSC2` [compound 10, 1^6-chloro-1^1,6^4-dimethyl-2^5,2^6-dihydro-1^1H,2^4H-10-oxa-4,8-dithia-6(2,5)-oxazola-1(7,3)-indola-2(3,2)-pyrrolo[1,2-naphthalenacyclotridecaphane-b]pyrazola-9(3,1)-1^2-carboxylic acid], the IC50 in test [3] is 10.5 nM; in test [1] (Homo sapiens, NCI-H929, 24 h), 1970 nM; in test [2] (Homo sapiens, OPM-2, 24 h), 8810 nM.
For `Cn1nc2cc1CSc1cc(c3ccccc3c1)OCCCc1c(C(=O)O)n(C)c3c(c(Cl)ccc13)-c1c(nn3c1COCC3)CSC2` [compound 12, (Z)-1^6-chloro-1^1,6^1-dimethyl-2^6,2^7-dihydro-1^1H,2^4H,6^1H-10-oxa-4,8-dithia-2(3,2)-pyrazolo[5,1-c][1,4]oxazina-1(7,3)-indola-6(3,5)-pyrazola-9(3,1)-naphthalenacyclotridecaphane-1^2-carboxylic acid] the same measures were 10.9 nM, 81 nM and 532 nM.
Taken in the same sequence, the figures for `Cn1nc2nc1CSc1cc(c3ccccc3c1)OCCCc1c(C(=O)O)n(C)c3c(c(Cl)ccc13)-c1c(nn3c1CCC3)CSC2` [compound 13, (Z)-1^6-chloro-1^1,6^1-dimethyl-2^5,2^6-dihydro-1^1H,2^4H,6^1H-10-oxa-4,8-dithia-1(7,3)-indola-2(3,2)-pyrrolo[1,2-b]pyrazola-6(3,5)-triazola-9(3,1)-naphthalenacyclotridecaphane-1^2-carboxylic acid] were 14.6 nM, 4300 nM and > 10000 nM.
